Data from ChEMBL document CHEMBL3044861, “Synthesis and Herbicidal Activity of New 2-(1-Carbamoyl-1, 2, 4-triazol-3-ylsulfonyl) alkanoates” (J Pestic Sci, 2002).

Legend:
[1] = Herbicidal activity against broadleaf weed assessed as killing at 50 g/ha pre-emergence application under paddy conditions; type: functional
[2] = Herbicidal activity against broadleaf weed assessed as killing at 25 g/ha pre-emergence application under paddy conditions; type: functional
Pontederia vaginalis [3] = experiment: Herbicidal activity against Monochoria vaginalis assessed as killing at 10 g/ha pre-emergence application under paddy conditions; type: functional
Pontederia vaginalis [4] = experiment: Herbicidal activity against Monochoria vaginalis assessed as killing at 25 g/ha pre-emergence application under paddy conditions; type: functional
Echinochloa oryzicola [5] = experiment: Herbicidal activity against Echinochloa oryzicola assessed as killing pre-emergence application under paddy conditions; type: functional
Oryza sativa [6] = experiment: Toxicity in Oryza sativa (rice) assessed as injury at 25 g/ha pre-emergence application under paddy conditions by crop safety assay; type: organism-based; settings: in vivo, other
Echinochloa oryzicola [7] = experiment: Herbicidal activity against Echinochloa oryzicola assessed as killing at 10 g/ha pre-emergence application under paddy conditions; type: functional
Oryza sativa [8] = experiment: Toxicity in Oryza sativa (rice) assessed as injury at 10 g/ha pre-emergence application under paddy conditions by crop safety assay; type: organism-based; settings: in vivo, other
[9] = system: Schoenoplectiella juncoides; experiment: Herbicidal activity against Schoenoplectiella juncoides assessed as killing at 10 g/ha pre-emergence application under paddy conditions; type: functional
Echinochloa oryzicola [10] = experiment: Herbicidal activity against Echinochloa oryzicola assessed as killing at 25 g/ha pre-emergence application under paddy conditions; type: functional
[11] = Herbicidal activity against broadleaf weed assessed as killing at 10 g/ha pre-emergence application under paddy conditions; type: functional
[12] = system: Schoenoplectiella juncoides; experiment: Herbicidal activity against Schoenoplectiella juncoides assessed as killing at 25 g/ha pre-emergence application under paddy conditions; type: functional
Oryza sativa [13] = experiment: Toxicity in Oryza sativa (rice) assessed as injury at 50 g/ha pre-emergence application under paddy conditions by crop safety assay; type: organism-based; settings: in vivo, other
Pontederia vaginalis [14] = experiment: Herbicidal activity against Monochoria vaginalis assessed as killing at 50 g/ha pre-emergence application under paddy conditions; type: functional
[15] = system: Schoenoplectiella juncoides; experiment: Herbicidal activity against Schoenoplectiella juncoides assessed as killing at 50 g/ha pre-emergence application under paddy conditions; type: functional
[16] = Octanol-water partition coefficient, log K of the compound; type: physicochemical; settings: read-out: log K
Echinochloa oryzicola [17] = experiment: Herbicidal activity against Echinochloa oryzicola assessed as killing at 50 g/ha pre-emergence application under paddy conditions; type: functional

**Q.** Which Activity [1] does the source give for `CCN(CC)C(=O)n1cnc(S(=O)(=O)C(CC(C)C)C(=O)OC(C)C)n1` (configuration not stated) here?
**A.** 100%

**Q.** What about the Activity [2] of the same compound?
**A.** 90%

**Q.** What about the Activity (Pontederia vaginalis [3]) of the same compound?
**A.** 10%

**Q.** What about the Activity (Pontederia vaginalis [4]) of the same compound?
**A.** 40%

**Q.** And the “log(1/ED80)” value (Echinochloa oryzicola [5])?
**A.** 1.41

**Q.** And the Activity (Oryza sativa [6])?
**A.** 10%

**Q.** And the Activity (Echinochloa oryzicola [7])?
**A.** 40%

**Q.** And the Activity (Oryza sativa [8])?
**A.** 10%

**Q.** What about the Activity [9] of the same compound?
**A.** 30%

**Q.** And the Activity (Echinochloa oryzicola [10])?
**A.** 90%

**Q.** And the Activity [11]?
**A.** 40%

**Q.** And the Activity [12]?
**A.** 60%

**Q.** What about the Activity (Oryza sativa [13]) of the same compound?
**A.** 10%

**Q.** What about the Activity (Pontederia vaginalis [14]) of the same compound?
**A.** 100%

**Q.** What about the Activity [15] of the same compound?
**A.** 100%

**Q.** What about the logP [16] of the same compound?
**A.** 0.89

**Q.** What about the Activity (Echinochloa oryzicola [17]) of the same compound?
**A.** 100%
